For assay [1], the system named is human LDLs. The experiment in a line: Modification of human LDLs by copper sulphate (lipid peroxidation, MDA production). The assay is classed as biochemical. Conditions: copper sulphate 5×10^-6 M, 24 hours; read-out: IC50, inhibition of copper-induced modification (MDA production) of human LDLs. As to the method: Human LDLs are incubated for 24 hours in the presence of copper sulphate (5×10^-6 M) and in the absence or presence of the compounds tested (10^-7 M to 10^-4 M). After incubation, the peroxidation of the LDLs is evaluated by electrophoresis on agar gel and by the formation of one of the products of lipid peroxidation malonic dialdehyde (MDA), (Parthasarathy S., Young S. G., Witztum J. L., Pittman R. C. and Steinberg, D.; J. Clin. invest. 77; 641-644, 1986).
The activity of the tested compounds is evaluated by calculating those concentrations (IC50) that reduce the production of MDA by 50% compared with control experiments in the absence of the tested compound.

Assay [2] deals with rat aorta. The assay is described as follows: Study on isolated vessels: vascular relaxing effect on a rat aorta contracted by potassium (80 mM). More on the design: species or system Wistar rat. Conditions: rat aorta rings without endothelium contracted by potassium (80 mM). The protocol:
The thoracic aorta of Wistar rats (325-375 g) that have been anaesthetized by the intraperitoneal route with sodium pentobarbital (30 mg/kg) is removed and dissected into rings 3 mm in length; the endothelium is removed by gentle abrasion using a piece of wood. Each ring is connected to a Statham pressure sensor (UC2-Gould). The initial pressure applied is 2.5 g. The physiological solution used, maintained at 37° C., has the following composition (mM): NaCl 112; KCl 5; KH2 PO4 1; MgSO4 1.2; CaCl2 2.5; NaHCO3 25; glucose 11.; EDTA 0.026. After a stabilization period of 90 minutes, the aorta rings are subjected to a hyperpotassic medium (80 MM KCl and 37 mM NaCl). When the contraction is stable, cumulative concentrations of compound are added to the medium every 15 minutes. The relaxation values obtained enable calculation of the IC50.

Assay [3] relates to cardiac cells. The experiment in a line: Oxidative necrosis of cardiac cells induced by hypoxanthine/xanthine-oxidase (XO + HX). The assay is classed as cell-based, rat (newborn). Conditions: Rattus norvegicus, 4 h; for activity at 10 µM: 10^-5 M, read-out: necrosis index of cardiac cells, XO + HX, compound 10^-5 M; for activity at 10 µM / activity at 1 µM / activity at 0.1 µM: XO + HX, control XO + HX = 100.0; for activity at 1 µM: 10^-6 M, read-out: necrosis index of cardiac cells, XO + HX, compound 10^-6 M; for activity at 0.1 µM: 10^-7 M, read-out: necrosis index of cardiac cells, XO + HX, compound 10^-7 M; for minimal effective concentration: XO + HX induced oxidative necrosis, read-out: concentration at which compounds prove to be protective against necrosis. The protocol: The cardiac cells of newborn rats are used between the 5th and 6th days after placing in culture. Oxidative necrosis is induced by the free radical-producing enzymatic system hypoxanthine (HX, 1 -mm) and xanthineoxidase (XO, 10 mU/ml). The necrosis is evaluated 4 hours after the addition of XO/HX by measuring by spectrophotometry the cytosolic α-hydroxybutyrate dehydrogenase (a-HBDH) activity liberated in the supernatant. The cells are treated with the test compounds 16 hours and 1 hour before the beginning of the experiment after renewing the medium. At the beginning of the experiment, the treatment is carried out again one last time.
Table 3 lists the necrosis indices of cardiac cells induced by the hypoxanthine/xanthine-oxidase system alone or in the presence of increasing concentrations of the compounds of the invention.

The test system of assay [4] is isolated hearts of rats. The experiment in a line: Hypoxia reoxygenation on the isolated heart of a rat. Also noted: species or system Wistar rat. Conditions: for functional recovery of the hearts during reoxygenation / reduction of the developing contracture at the end of 30 minutes reoxygenation: Example 1 at 3×10^-7 M, 10 at 10^-7 M, 13 at 7×10^-7 M; for functional recovery of the hearts during reoxygenation: 40% in the control experiments; for reduction of the developing contracture at the end of 30 minutes reoxygenation: vs control; for Contracture, hypoxia 10 min / Contracture, hypoxia 30 min / Contracture, hypoxia 60 min / Contracture, reoxygenation 15 min / Contracture, reoxygenation 30 min: Example 1 at 3 × 10^-7 M, Example 10 at 10^-7 M, Example 13 at 7 × 10^-7 M; for Contracture, hypoxia 10 min: control 23.7 ± 6.8; for Contracture, hypoxia 30 min: control 33.7 ± 8.9; for Contracture, hypoxia 60 min: control 32.3 ± 7.4; for Contracture, reoxygenation 15 min: control 20.6 ± 7.8; for Contracture, reoxygenation 30 min: control 12.3 ± 6.1. As to the method:
The hearts of male Wistar rats (325-375 g--Charles River breed) anaesthetized by the intraperitoneal route with sodium pentobarbital (30 mg/kg) are removed after the injection of heparin i.v. (1 ml/kg) and rapidly perfused by the Langendorff technique at a constant pressure of 76 mmhg and stimulated electrically at 5 Hz. The isovolumetric contractions are recorded by way of a small polyethylene balloon connected to a pressure sensor (P23-Gould) introduced into the left ventricle and inflated so as to obtain a diastolic pressure of approximately 10 mmhg. The physiological solution used, maintained at 37° C., has the following composition (mM): NaCl 118; KCl 4.7; KH2 PO4 1.2; MgCl2 1.2; CaCl2 1.3; NaHCO3 25; glucose 8, pH 7.4/95% O2 +5% CO2.
After a period of stabilization of from 15 to 30 minutes, the heart is subjected to hypoxia for 60 minutes (effected with 95% N2 and 5% CO2; PO2 <40 mmHg), followed by reoxygenation for 30 minutes; the compound is added to the incubation medium 15 minutes before and during the period of hypoxia.

The text below walks through data of patent US5283246A, “Trimetazidine compounds” (Adir et Compagnie, priority 1991, dated 1994).

Molecules are shown by their SMILES.

Turning to `COc1ccc(CN2CCN(CCCOc3cc(C)c(O)c(C)c3C)CC2)c(OC)c1OC` [Example 1, 4-(2,3,4-trimethoxybenzyl)-1-[3-(4-hydroxy-2,3,5-trimethylphenoxy)propyl]piperazine], the IC50 (in general, the midpoint of a concentration-inhibition curve) in assay [1] was found to be 90 nM. In assay [2], half-maximal inhibition (IC50) required 5000 nM. Further, in assay [3], the activity at 10 µM is 13.9 ± 5.3%, the activity at 1 µM was found to be 55.4 ± 6.4%, the activity at 0.1 µM amounted to 70.4 ± 2.5% and the minimal effective concentration was no less than 0.1 µM. In assay [4], the “functional recovery of the hearts during reoxygenation” value is given as “more than 70%”; the “reduction of the developing contracture at the end of 30 minutes reoxygenation” value is “more than 70%”; the “Contracture, hypoxia 10 min” value is listed as 21.0 ± 5.8 mm Hg; the “Contracture, hypoxia 30 min” value came out at 22.5 ± 2.5 mm Hg. In assay [4], the “Contracture, hypoxia 60 min” value stood at 21.0 ± 3.9 mm Hg; the “Contracture, reoxygenation 15 min” value is reported as 12.5 ± 5.1 mm Hg; the “Contracture, reoxygenation 30 min” value turned out to be 2.5 ± 2.5 mm Hg.
As to `COc1ccc(CN2CCN(CCCSc3cc(C(C)(C)C)c(O)c(C(C)(C)C)c3)CC2)c(OC)c1OC` [Example 7, 4-(2,3,4-trimethoxybenzyl)-I-[3-(4-hydroxy-3,5-di-tert.-butylphenylthio)propyl]piperazine], the half-maximal inhibitory concentration (IC50) in assay [1] worked out at 600 nM. Also, in assay [3], the activity at 10 µM worked out at 27.9 ± 3.4%, the activity at 1 µM was 19.3 ± 0.9% and the activity at 0.1 µM came to 85.9 ± 1.7%.
For `COc1ccc(CN2CCN(CCCOc3cc(C(C)(C)C)c(O)c(C(C)(C)C)c3)CC2)c(OC)c1OC` [Example 3, 4-(2,3,4-trimethoxybenzyl)-l-[3-(4-hydroxy-3,5-di-tert.-butylphenoxy)propyl]piperazine], the IC50 in assay [1] came out at 500 nM. Further, in assay [3], the activity at 10 µM is 37.6 ± 2.7%, the activity at 1 µM is 16.9 ± 1.1%, the activity at 0.1 µM is 72.6 ± 5.7% and the minimal effective concentration was no less than 0.1 µM.
As for `COc1ccc(CN2CCN(CCC(C)(C)Sc3cc(C(C)(C)C)c(O)c(C(C)(C)C)c3)CC2)c(OC)c1OC` [Example 2, 4-(2,3,4-trimethoxybenzyl)-1-[3-(4-hydroxy-3,5-di-tert.-butylphenylthio)-3,3-dimethylpropyl]piperazine], the half-inhibitory concentration (IC50) in assay [1] was determined as 3000 nM.
The same measure, in the same setting: in the case of `COc1ccc(CN2CCN(CC(C)(C)CSc3cc(C(C)(C)C)c(O)c(C(C)(C)C)c3)CC2)c(OC)c1OC` [Example 12, 4-(2,3,4-trimethoxybenzyl)-l-[3-(4-hydroxy-3,5-di-tert.-butylphenylthio)-2,2-dimethylpropyl]piperazine] it was 800 nM.
On to `COc1ccc(CN2CCN(CCCc3cc(C(C)(C)C)c(O)c(C(C)(C)C)c3)CC2)c(OC)c1OC` [Example 4, 4-(2,3,4-trimethoxybenzyl)-l-[3-(4-hydroxy-3,5-di-tert.-butylphenyl)propyl]piperazine], for which the IC50 in assay [1] came out at 2000 nM. For the same molecule, in assay [3], the activity at 10 µM worked out at 10.2 ± 3.1%, the activity at 1 µM was 22.3 ± 6.5% and the activity at 0.1 µM was 103 ± 12%.
For `COc1ccc(CN2CCN(CC(O)COc3cc(C)c(O)c(C)c3C)CC2)c(OC)c1OC` (stereo not drawn) [Example 11, 4-(2,3,4-trimethoxybenzyl)-l-[3-(4-hydroxy-2,3,5-trimethylphenoxy)-2-hydroxypropyl]piperazine] the same measures were 600 nM, 18 ± 2.9%, 70.9 ± 8.3% and 114 ± 5.2%.
In the case of `COc1ccc(CN2CCN(CC(O)CSc3cc(C(C)(C)C)c(O)c(C(C)(C)C)c3)CC2)c(OC)c1OC` (centres unmarked) [Example 6, 4-(2,3,4-trimethoxybenzyl)-I-[3-(4-hydroxy-3,5-di-tert.-butylphenylthio)-2-hydroxypropyl]piperazine], the IC50 in assay [1] was found to be 300 nM. Also, in assay [2], the IC50 turned out to be 2700 nM. For the same molecule, in assay [3], the activity at 10 µM worked out at 8.3 ± 1.4%, the activity at 1 µM amounted to 7.7 ± 0.1% and the activity at 0.1 µM was 99.5 ± 7.5%.
Turning to `COc1ccc(CN2CCN(CCCCCSc3cc(C(C)(C)C)c(O)c(C(C)(C)C)c3)CC2)c(OC)c1OC` [Example 9, 4-(2,3,4-trimethoxybenzyl)-l-[5-(4-hydroxy-3,5-di-tert.-butylphenylthio)pentyl]piperazine], the half-inhibitory concentration (IC50) in assay [1] was found to be 80 nM. Also, in assay [3], the activity at 10 µM worked out at 33.3 ± 6.6%, the activity at 1 µM was found to be 15.2 ± 2%, the activity at 0.1 µM was 53 ± 5.5% and the minimal effective concentration is no less than 0.1 µM.
For the molecule `COc1ccc(CN2CCN(CCCCCOc3cc(C(C)(C)C)c(O)c(C(C)(C)C)c3)CC2)c(OC)c1OC` [Example 8, 4-(2,3,4-trimethoxybenzyl)-l-[5-(4-hydroxy-3,5-di-tert.-butylphenoxy)pentyl]piperazine], in assay [1], the IC50 amounted to 1000 nM. In addition, in assay [3], the activity at 10 µM stood at 27.2 ± 2%, the activity at 1 µM stood at 21.6 ± 4.2% and the activity at 0.1 µM was determined as 91.4 ± 3.1%.
Turning to `COc1ccc(CN2CCN(CC(O)CSc3cc(C)c(O)c(C)c3C)CC2)c(OC)c1OC` (stereo not drawn) [Example 13, 4-(2,3,4-trimethoxybenzyl)-l-[3-(4-hydroxy-2,3,5-trimethylphenylthio)-2-hydroxypropyl)piperazine], in assay [1], the IC50 came to 70 nM. Besides, the IC50 in assay [2] was 4300 nM. In addition, in assay [3], the activity at 10 µM was 15.1 ± 0.6%, the activity at 1 µM was determined as 64.7 ± 0.4% and the activity at 0.1 µM amounted to 100 ± 4.8%. In assay [4], the “functional recovery of the hearts during reoxygenation” value was “more than 70%”; the “reduction of the developing contracture at the end of 30 minutes reoxygenation” value was “more than 70%”; the “Contracture, hypoxia 10 min” value turned out to be 11.0 ± 4.4 mm Hg; the “Contracture, hypoxia 30 min” value was 15.0 ± 6.1 mm Hg. Further, in assay [4], the “Contracture, hypoxia 60 min” value is given as 13.5 ± 6.3 mm Hg; the “Contracture, reoxygenation 15 min” value was 6.0 ± 6.0 mm Hg; the “Contracture, reoxygenation 30 min” value was 3.5 ± 3.5 mm Hg.
On to `COc1ccc(CN2CCN(CC(O)COc3cc(C(C)(C)C)c(O)c(C(C)(C)C)c3)CC2)c(OC)c1OC` (stereo not drawn) [Example 5, 4-(2,3,4-trimethoxybenzyl)-l-[3-(4-hydroxy-3,5-di-tert.-butylphenoxy)-2-hydroxypropyl]piperazine], for which the IC50 in assay [1] stood at 900 nM.
